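Cultured in 96-well plates, cells were exposed to test compound for 48 hours across five concentrations. TGI is the concentration that stops growth completely.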
Assays:
Assay in all cases: growth of human tumour cells (NCI), 48 h
[1] = system: KM20L2 colon
[2] = system: HT29 colon
[3] = system: ACHN renal
[4] = system: DMS 273 small cell lung
[5] = system: NCI-H226 lung
[6] = system: SF-295 CNS
[7] = system: U251 CNS
[8] = system: UO-31 renal
[9] = system: UACC-62 melanoma
[10] = system: SR leukemia
[11] = system: HOP-92 NSCLC
[12] = system: NCI-H23 lung
[13] = system: M19-MEL melanoma
[14] = system: EKVX NSCLC
[15] = system: IGROV1 ovarian
[16] = system: 786-0 renal
[17] = system: XF 498 CNS
[18] = system: TK-10 renal
[19] = system: SF-268 CNS
[20] = system: CCRF-CEM leukemia
[21] = system: HOP-18 NSCLC
[22] = system: M14 melanoma
[23] = system: SK-OV-3 ovarian
[24] = system: RXF 393 renal
[25] = system: SK-MEL-28 melanoma
[26] = system: HCT-116 colon
[27] = system: DLD-1 colon
[28] = system: HOP-62 NSCLC
[29] = system: OVCAR-3 ovarian
[30] = system: HL-60(TB) leukemia
[31] = system: OVCAR-4 ovarian
[32] = system: SNB-78 CNS
[33] = system: A498 renal
[34] = system: DMS 114 small cell lung
[35] = system: A549 NSCLC
[36] = system: SW-620 colon
[37] = system: SF-539 CNS
[38] = system: MALME-3M melanoma
[39] = system: SN12C renal
[40] = system: CAKI-1 renal
[41] = system: LXFL 529 NSCLC
[42] = system: RPMI-8226 leukemia
[43] = system: SNB-75 CNS
[44] = system: KM12 colon
[45] = system: LOX IMVI melanoma
[46] = system: UACC-257 melanoma
[47] = system: OVCAR-5 ovarian
[48] = system: HCC-2998 colon
[49] = system: NCI-H460 lung
[50] = system: NCI-H522 lung
[51] = system: OVCAR-8 ovarian
[52] = system: SNB-19 CNS
[53] = system: K-562 leukemia
[54] = system: COLO 205 colon
[55] = system: PC-3 prostate
[56] = system: MOLT-4 leukemia
[57] = system: T-47D breast
[58] = system: SK-MEL-2 melanoma
[59] = system: NCI/ADR-RES ovarian
[60] = system: MDA-MB-435
[61] = system: MDA-MB-231 breast
[62] = system: MCF7 breast
[63] = system: BT-549 breast
[64] = system: SK-MEL-5 melanoma
[65] = system: HCT-15 colon
[66] = system: DU-145 prostate
[67] = system: MDA-N
[68] = system: HS 578T breast

Measured: TGI

O=C1CC(CC(=O)C2CCCCC2=O)C(=O)N1 (stereo not drawn)
not listed: [55] | [56] | [57] | [58] | [59] | [60] | [61] | [62] | [63] | [64] | [65] | [66] | [67] | [68]
> 100 µM: all other assays above

O=[N+]([O-])c1ccccc1OCCOc1ccccc1[N+](=O)[O-]
not listed: [1] | [4] | [13] | [17] | [21] | [27] | [32] | [34] | [41]
> 100 µM: all other assays above

— PubChem BioAssay (NCI)
